Measurements as given in patent US9688722B2, “Substrates and inhibitors of prolyl oligopeptidase and methods of use” (The Board of Regents of the University of Oklahoma, priority 2012, dated 2017).
“Also recorded” adds a separate entry of the source.

Target: T1, FAP activity on WI-38 fibroblast surfaces (Homo sapiens, UniProt Q12884)
T1 construct: host or cells: WI-38 fibroblasts
T1 sequence (Q12884 1-760): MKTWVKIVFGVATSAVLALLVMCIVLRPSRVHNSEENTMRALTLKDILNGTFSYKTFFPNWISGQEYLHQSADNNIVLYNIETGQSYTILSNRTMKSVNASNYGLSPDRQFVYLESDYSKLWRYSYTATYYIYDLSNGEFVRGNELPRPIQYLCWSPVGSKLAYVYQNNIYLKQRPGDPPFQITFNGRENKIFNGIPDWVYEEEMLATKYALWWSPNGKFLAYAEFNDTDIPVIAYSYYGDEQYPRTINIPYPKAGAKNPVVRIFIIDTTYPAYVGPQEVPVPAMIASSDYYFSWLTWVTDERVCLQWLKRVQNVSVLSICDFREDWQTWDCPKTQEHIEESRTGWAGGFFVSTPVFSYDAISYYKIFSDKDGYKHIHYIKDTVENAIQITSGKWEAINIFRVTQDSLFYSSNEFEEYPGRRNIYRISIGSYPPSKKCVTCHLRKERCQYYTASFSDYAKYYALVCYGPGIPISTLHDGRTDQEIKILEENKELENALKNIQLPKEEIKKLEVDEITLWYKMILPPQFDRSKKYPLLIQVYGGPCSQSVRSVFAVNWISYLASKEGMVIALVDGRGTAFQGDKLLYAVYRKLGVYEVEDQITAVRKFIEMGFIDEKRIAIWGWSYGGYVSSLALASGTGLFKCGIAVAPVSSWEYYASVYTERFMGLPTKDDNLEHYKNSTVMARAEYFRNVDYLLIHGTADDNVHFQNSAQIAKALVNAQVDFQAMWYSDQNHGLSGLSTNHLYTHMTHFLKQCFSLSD
Experiment: Whole cell activity assay, cleavage of C95 on WI-38 fibroblasts
Format: cell-based
Settings: substrate C95, inhibitor 10 μM, 1 μM or 100 nM added at two hours
Experimental: WI-38 fibroblasts were grown on plastic, washed once with HBSS, after which the M83 inhibitor 10 μM in HBSS was added at zero time to one set, and buffer only to the other four sets. The fluorescent substrate C95 was added to all sets of wells and Δ fluorescence/min, reflecting cleavage of C95 over time, was allowed to proceed for two hours when 10 μM, 1 μM or 100 nM of the M83 inhibitor was added to each of three sets of wells.
Whole cell activity assays: Cells were cultured in normal growth media unless otherwise stated. […] Ten μl of fluorescent substrate, C95 were added to give a final concentration of 125 μM, and fluorescence was measured with time at 360/460 nm excitation/emission wavelengths using an FL600 microplate fluorescence reader (Bio-tek Instruments). Fluorescence units were converted to FAP units/100,000 cells by using a conversion factor determined from an APCE standard curve of prolyl-specific endopeptidase activity, such that 1 FAP unit is equivalent to the fluorescence produced by 1 ng of APCE/min. Since FAP and POP cleave the C95 substrate at an equivalent rate, both FAP and POP activities are expressed as FAP units in all figures.

Structure (SMILES): CC(=O)N[C@@H](CCCNC(=N)N)C(=O)NCCOCCOCC(=O)N[C@H](C)C(=O)N1CCC[C@H]1B(O)O [Compound M83, acetyl-Arg-AEEA-(D)Ala-(L)boroPro]
- inhibition of FAP proteolytic activity on the cell surface: instantly, and essentially totally, inhibited; also recorded: instantly abolished endopeptidase activity
